Measured values as given in patent US20070179121A1, “Method of treating pediatric patients with corticosteroids” (priority 2006, published 2007).

Tested on: HPA-axis
Assay: HPA-axis suppression: serum cortisol before and 30 minutes after intravenous cosyntropin stimulation, pediatric atopic dermatitis patients
Assay type: in vivo, human (pediatric patients)
Conditions: for Not suppressed: percent in brackets
Method: At the baseline visit, physical examinations were performed, including measurements of height, weight, and vital signs, and female subjects of childbearing potential underwent a urine pregnancy test (UPT). Patients with any significant disease of the hepatic, renal, endocrine, musculoskeletal, or nervous system were excluded. At Screening/Baseline, each qualified patient was assessed for a normally functioning HPA axis. Male or female patients with clinically diagnosed atopic dermatitis, involving ≧20% of the total body surface area (BSA), were randomized to receive either qd (once a day) or bid (twice a day) treatment in 4 sequential cohorts. The “rule of nines” method was used in calculating affected BSA.
Enrollment in the 4 cohorts was as follows: Cohort 1-33 patients, 12 to <18 years of age; Cohort 2-32 patients, 6 to <12 years of age; Cohort 3-30 patients, 2 to […] Cohort 4-31 infants, 3 months to <2 years of age.
Enrollment into each cohort began only after evaluation of the preceding cohort in order to minimize the risk of systemic toxicity to the study subjects. Four observations of HPA-axis suppression in a single treatment group per cohort were considered as evidence of a clinically significant risk.
Patients who met the inclusion/exclusion criteria were randomized to receive topical fluocinonide either qd or bid. Patients/guardians were instructed to apply a thin layer of the study product to all treatable areas once or twice daily for 14 days. If the areas to be treated were hairy, patients/guardians were instructed to part the hair to allow direct contact between the study product and the lesion. Patients/guardians were also instructed not to apply study product to lesions of the face, groin, perianal area, and axillae. At the end of Weeks 1, 2, and 4, patients returned to the study site in order for the investigator to perform designated evaluations, review treatment compliance and concomitant therapy, and to collect information regarding adverse events.
The potential of fluocinonide to suppress the HPA-axis was assessed by determining the rate of incidence of suppression, when suppression was defined as a serum cortisol level ≦18 μg/dL, 30 minutes after intravenous cosyntropin stimulation. For a subject to be evaluable for HPA-axis suppression, the subject must have received at least 2 full weeks of fluocinonide treatment prior to the cosyntropin challenge. Pre-and post-cosyntropin-stimulation blood samples were obtained between 7:30 and 8:30 AM to account for diurnal variation in cortisol levels, at the Baseline and Week 2 visits, as directed in the Cortrosyn® package insert. Cortrosyn® is a drug that stimulates the adrenal gland. […] The dose and administration of cosyntropin followed the labeling of the product. Specifically, the dose for subjects 3 to 17 years of age was 0.25 mg, and the dose for subjects 3 months to 2 years old was 0.125 mg. At the end of the 14-day treatment period, any subject with a post-stimulation cortisol level ≦18 μg/dL was re-tested at Week 4 and once every 4 weeks thereafter until the post-stimulation levels were within normal limits.
Mean post-stimulation cortisol levels measured at Baseline and at Week 2 were compared using a paired t test.

[1] = End of Week 2, Cohort 1 (12-<18 years), bid
[2] = End of Week 2, Cohort 1 (12-<18 years), qd
[3] = End of Week 2, Cohort 2 (6-<12 years), bid
[4] = End of Week 2, Cohort 2 (6-<12 years), qd
[5] = End of Week 2, Cohort 3 (2-<6 years), bid
[6] = End of Week 2, Cohort 3 (2-<6 years), qd
[7] = End of Week 2, Cohort 4 (3 months to <2 year), bid
[8] = End of Week 2, Cohort 4 (3 months to <2 year), qd
[9] = Screening, Cohort 1 (12-<18 years), bid
[10] = Screening, Cohort 1 (12-<18 years), qd
[11] = Screening, Cohort 2 (6-<12 years), bid
[12] = Screening, Cohort 2 (6-<12 years), qd
[13] = Screening, Cohort 3 (2-<6 years), bid
[14] = Screening, Cohort 3 (2-<6 years), qd
[15] = Screening, Cohort 4 (3 months to <2 year), bid
[16] = Screening, Cohort 4 (3 months to <2 year), qd
[17] = patient of Cohort 3 bid, Week 2 (samples suspected reversed)

Compound: CC(=O)OCC(=O)[C@@]12OC(C)(C)O[C@@H]1C[C@H]1[C@@H]3C[C@H](F)C4=CC(=O)C=C[C@]4(C)[C@@]3(F)[C@@H](O)C[C@@]12C [Fluocinonide, pregna-1,4-diene-3,20-dione,21-(acetyloxy)-6,9-difluoro-11-hydroxy-16, 17-[(1-methylethylidene)bis(oxy)]-,(6α., 11β,16α)-]
- Patients who met the criterion for HPA-axis suppression (Cohort 1, bid, 1 of 15): 6.7%
- Patients who met the criterion for HPA-axis suppression (Cohort 2, bid, 2 of 16): 12.5%
- Patients who met the criterion for HPA-axis suppression (Cohort 3, bid, Week 2, 1 of 15, samples suspected reversed, not counted as suppression): 6.7%
- Subjects who experienced HPA-axis suppression (Cohort 4): None
- Cortisol increase in levels, Mean ± SD [1]: 8.6 ± 4.7 µg/dL
- Cortisol increase in levels, Range [1]: 1.2 to 17.0 µg/dL
- Cortisol pre-stimulation level, Mean ± SD [1]: 17.2 ± 8.3 µg/dL
- Cortisol pre-stimulation level, Range [1]: 7.1 to 34.2 µg/dL
- Not suppressed [1]: 14 (93.3) N
- Cortisol increase in levels, Mean ± SD [2]: 9.3 ± 5.1 µg/dL
- Cortisol increase in levels, Range [2]: 3.5 to 22.2 µg/dL
- Cortisol pre-stimulation level, Mean ± SD [2]: 17.6 ± 7.6 µg/dL
- Cortisol pre-stimulation level, Range [2]: 1.2 to 32.9 µg/dL
- Not suppressed [2]: 15 (100) N
- Cortisol increase in levels, Mean ± SD [3]: 11.5 ± 5.2 µg/dL
- Cortisol increase in levels, Range [3]: -3.5 to 20.3 µg/dL
- Cortisol pre-stimulation level, Mean ± SD [3]: 12.3 ± 4.9 µg/dL
- Not suppressed [3]: 14 (87.5) N
- Cortisol increase in levels, Mean ± SD [4]: 11.0 ± 4.8 µg/dL
- Cortisol increase in levels, Range [4]: -2.3 to 17.8 µg/dL
- Cortisol pre-stimulation level, Mean ± SD [4]: 13.7 ± 5.6 µg/dL
- Cortisol pre-stimulation level, Range [4]: 6.9 to 29.3 µg/dL
- Cortisol post-stimulation level, Mean ± SD (End of Week 2, Cohort 2 (6-<12 years), qd, P = 0.015 vs screening): 24.7 ± 3.0 µg/dL
- Cortisol post-stimulation level, Mean ± SD (End of Week 2, Cohort 2 (6-<12 years), qd, P = 0.015 vs screening, listed as fluocinonide): 24.7 µg/dL
- Not suppressed [4]: 15 (100) N
- Cortisol increase in levels, Mean ± SD [5]: 11.0 ± 10.4 µg/dL
- Cortisol increase in levels, Range [5]: -19 to 29.1 µg/dL
- Cortisol pre-stimulation level, Mean ± SD [5]: 15.0 ± 5.9 µg/dL
- Not suppressed [5]: 15 (100) N
- Cortisol increase in levels, Mean ± SD [6]: 12.7 ± 4.9 µg/dL
- Cortisol increase in levels, Range [6]: 3.1 to 22.0 µg/dL
- Cortisol pre-stimulation level, Mean ± SD [6]: 15.4 ± 7.0 µg/dL
- Not suppressed [6]: 15 (100) N
- Cortisol increase in levels, Mean ± SD [7]: 16.5 ± 6.6 µg/dL
- Cortisol increase in levels, Range [7]: 7.0 to 29.7 µg/dL
- Cortisol pre-stimulation level, Mean ± SD [7]: 13.0 ± 4.6 µg/dL
- Not suppressed [7]: 15 (100) N
- Cortisol increase in levels, Mean ± SD [8]: 19.9 ± 7.1 µg/dL
- Cortisol increase in levels, Range [8]: 6.4 to 29.9 µg/dL
- Cortisol pre-stimulation level, Mean ± SD [8]: 10.4 ± 3.2 µg/dL
- Not suppressed [8]: 15 (100) N
- Cortisol increase in levels, Mean ± SD [9]: 11.1 ± 3.7 µg/dL
- Cortisol increase in levels, Range [9]: 4.3 to 17.4 µg/dL
- Cortisol post-stimulation level, Mean ± SD [9]: 26.8 ± 8.0 µg/dL
- Cortisol post-stimulation level, Range [9]: 18.3 to 50.4 µg/dL
- Cortisol pre-stimulation level, Mean ± SD [9]: 15.7 ± 10.3 µg/dL
- Cortisol pre-stimulation level, Range [9]: 0.9 to 42.7 µg/dL
- Cortisol increase in levels, Mean ± SD [10]: 9.3 ± 5.2 µg/dL
- Cortisol increase in levels, Range [10]: -1.2 to 22.1 µg/dL
- Cortisol post-stimulation level, Mean ± SD [10]: 26.4 ± 3.7 µg/dL
- Cortisol post-stimulation level, Range [10]: 18.2 to 31.3 µg/dL
- Cortisol pre-stimulation level, Mean ± SD [10]: 17.2 ± 6.6 µg/dL
- Cortisol pre-stimulation level, Range [10]: 2.0 to 26.1 µg/dL
- Cortisol increase in levels, Mean ± SD [11]: 12.3 ± 3.7 µg/dL
- Cortisol increase in levels, Range [11]: 3.8 to 17.8 µg/dL
- Cortisol post-stimulation level, Mean ± SD [11]: 24.9 ± 3.9 µg/dL
- Cortisol post-stimulation level, Range [11]: 19.4 to 32.1 µg/dL
- Cortisol pre-stimulation level, Mean ± SD [11]: 12.5 ± 4.5 µg/dL
- Cortisol pre-stimulation level, Range [11]: 6.4 ± 22.2 µg/dL
- Cortisol increase in levels, Mean ± SD [12]: 14.0 ± 6.1 µg/dL
- Cortisol increase in levels, Range [12]: 3.0 to 22.6 µg/dL
- Cortisol post-stimulation level, Mean ± SD [12]: 28.0 ± 4.3 µg/dL
- Cortisol post-stimulation level, Range [12]: 20.9 to 36.2 µg/dL
- Cortisol pre-stimulation level, Mean ± SD [12]: 14.0 ± 5.0 µg/dL
- Cortisol pre-stimulation level, Range [12]: 6.6 to 25.1 µg/dL
- Cortisol post-stimulation level, Mean ± SD (Screening, Cohort 2 (6-<12 years), qd, listed as fluocinonide): 28.0 µg/dL
- Cortisol increase in levels, Mean ± SD [13]: 15.6 ± 7.0 µg/dL
- Cortisol increase in levels, Range [13]: 1.8 to 30.0 µg/dL
- Cortisol post-stimulation level, Mean ± SD [13]: 29.9 ± 6.1 µg/dL
- Cortisol post-stimulation level, Range [13]: 20.1 to 40.0 µg/dL
- Cortisol pre-stimulation level, Mean ± SD [13]: 14.4 ± 5.6 µg/dL
- Cortisol pre-stimulation level, Range [13]: 6.1 to 23.4 µg/dL
- Cortisol increase in levels, Mean ± SD [14]: 17.4 ± 3.1 µg/dL
- Cortisol increase in levels, Range [14]: 11.2 to 23.0 µg/dL
- Cortisol post-stimulation level, Mean ± SD [14]: 29.0 ± 3.8 µg/dL
- Cortisol post-stimulation level, Range [14]: 22.8 to 37.0 µg/dL
- Cortisol pre-stimulation level, Mean ± SD [14]: 11.6 ± 3.6 µg/dL
- Cortisol pre-stimulation level, Range [14]: 7.3 to 19.8 µg/dL
- Cortisol increase in levels, Mean ± SD [15]: 17.9 ± 4.7 µg/dL
- Cortisol increase in levels, Range [15]: 11.4 to 25.0 µg/dL
- Cortisol post-stimulation level, Mean ± SD [15]: 29.2 ± 6.1 µg/dL
- Cortisol post-stimulation level, Range [15]: 20.5 to 38.8 µg/dL
- Cortisol pre-stimulation level, Mean ± SD [15]: 11.3 ± 4.9 µg/dL
- Cortisol pre-stimulation level, Range [15]: 6.0 to 20.8 µg/dL
- Cortisol increase in levels, Mean ± SD [16]: 16.5 ± 4.7 µg/dL
- Cortisol increase in levels, Range [16]: 6.1 to 23.0 µg/dL
- Cortisol post-stimulation level, Mean ± SD [16]: 28.3 ± 5.1 µg/dL
- Cortisol post-stimulation level, Range [16]: 20.7 to 36.2 µg/dL
- Cortisol pre-stimulation level, Mean ± SD [16]: 11.8 ± 4.3 µg/dL
- Cortisol pre-stimulation level, Range [16]: 4.7 to 19.6 µg/dL
- Suppression of the HPA-axis (administered once daily, patients 3 months to <18 years of age): does not result in suppression of the HPA-axis
- HPA-axis suppression (administered topically once or twice daily, pediatric patients with atopic dermatitis): does not result in any significant level of HPA-axis suppression
- Suppression of the HPA-axis (administered twice daily): low incidence of suppression of the HPA-axis
- Post-stimulation serum cortisol level, single patient (first suppressed patient of Cohort 2 bid, Screening): 32.1 µg/dL
- Post-stimulation serum cortisol level, single patient (first suppressed patient of Cohort 2 bid, Week 2): 17.2 µg/dL
- Post-stimulation serum cortisol level, single patient (first suppressed patient of Cohort 2 bid, Week 4 (2 weeks post-treatment)): 28.7 µg/dL
- Post-stimulation serum cortisol level, single patient (patient of Cohort 3 bid, Screening): 40.0 µg/dL
- Post-stimulation serum cortisol level, single patient [17]: 9.1 µg/dL
- Pre-stimulation serum cortisol level, single patient [17]: 28.0 µg/dL
- Post-stimulation serum cortisol level, single patient (patient of Cohort 3 bid, Week 4): 30.3 µg/dL
- Post-stimulation serum cortisol level, single patient (second suppressed patient of Cohort 2 bid, 8 days after the end of treatment): 22.4 µg/dL
- Post-stimulation serum cortisol level, single patient (second suppressed patient of Cohort 2 bid, Screening): 20.5 µg/dL
- Post-stimulation serum cortisol level, single patient (second suppressed patient of Cohort 2 bid, Week 2): 16.7 µg/dL
- Post-stimulation serum cortisol level, single patient (suppressed patient of Cohort 1 bid, Week 2): 17.6 µg/dL
- Post-stimulation serum cortisol level, single patient (suppressed patient of Cohort 1 bid, Week 4 (2 weeks post-treatment)): 18.9 µg/dL
